Experimental findings from patent US5871949A, “Method of quantitative assay for 1,5-anhydroglucitol and reagent for quantitative assay” (Daiichi Pure Chemicals Co., Ltd., priority 1996, dated 1999) are described below.

Common to all, as to format: biochemical, Agrobacterium tumefaciens NT 1130
Test [1] relates to 1,5-AG dehydrogenase. Briefly: Substrate specificity of 1,5-AG dehydrogenase (relative activity on various sugars). As to conditions: substrate final concentration 5 mM; for Relative activity (substrate specificity): 1,5-AG = 100, nitrotetrazolium blue, pH 8.0, 37° C. The method, then: The activity of the 1,5-AG dehydrogenase is measured in the following way. That is, 3.0 ml in total of an enzyme-containing solution comprised of 1.5 ml of 0.2M potassium phosphate buffer (pH 8.0), 0.3 ml of 0.25% by weight nitrotetrazolium blue, 0.3 ml of 2% by weight nonionic surface-active agent, 0.3 ml of an aqueous 50 mM 1,5-AG solution, 0.45 ml of water and 0.15 ml of an enzyme solution is reacted at 37° C., and a change in absorbance (ΔmOD/min) at 540 nm is measured. The molecular extinction coefficient (or molar absorption coefficient) of a formazan dye formed under such conditions is given as 16.7×10^3 and the quantity of the enzyme capable of forming 1 μmol of formazan in one minute is regarded as one unit, where the activity of the 1,5-AG dehydrogenase is determined according to the following expression; [formula] (1) Activity:
Relative activities (substrate specificity) of instances where the 1,5-AG was replaced with various sugar solutions (all having a final concentration of 5 mM) in the above method of measuring the enzymatic activity are shown in Table 2.

Test [2] concerns 1,5-AG dehydrogenase. Briefly: Km value by Lineweaver-Burk plot. To be noted: read-out: Km value with respect to 1,5-AG. The protocol: The Km value of the present enzyme with respect to 1,5-AG was determined by the Lineweaver-Burk plot to reveal that it was about 0.5 mM.
Test [3] deals with 1,5-AG dehydrogenase. Briefly: Electron acceptor utilisation by 1,5-AG dehydrogenase (relative activity). As to conditions: 100 mM potassium phosphate buffer pH 8.0. The method, then: In 100 mM of the potassium phosphate buffer (pH 8.0), various electron acceptors were made present together with the present enzyme, where the activities on the respective electron acceptors were indicated as relative activities, which were as shown in Table 3.

In the case of `O=C[C@H](O)[C@@H](O)[C@@H](O)[C@H](O)CO` [D-galactose], the “Relative activity (substrate specificity)” value in the test with 1,5-AG dehydrogenase [1] was determined as 0.

For `O=C[C@H](O)[C@@H](O)[C@H](O)[C@H](O)CO` [D-glucose], in the test with 1,5-AG dehydrogenase [1], the “Action of the enzyme on the substrate (in words)” value (shortened to “Action of the enzyme”) was “slightly acted” and the “Relative activity (substrate specificity)” value is 11.

Consider `OC[C@H]1OC[C@H](O)[C@@H](O)[C@@H]1O` [1,5-AG, 1,5-anhydroglucitol], for which, in the test with 1,5-AG dehydrogenase [1], the “Action of the enzyme” value is reported as “strongly acted” and the “Relative activity (substrate specificity)” value amounted to 100. The Km in the test with 1,5-AG dehydrogenase [2] is roughly 500 µM.

As for `NC(=O)c1ccc[n+]([C@@H]2O[C@H](COP(=O)([O-])OP(=O)(O)OC[C@H]3O[C@@H](n4cnc5c(N)ncnc54)[C@H](O)[C@@H]3O)[C@@H](O)[C@H]2O)c1` [NAD, nicotinamide adenine dinucleotide], the “Relative activity (electron acceptor)” value with 1,5-AG dehydrogenase [3] (acceptor 1.0 mM) was 0%.

In the case of `COc1cc(-c2ccc(-[n+]3nc(-c4ccccc4)nn3-c3ccc([N+](=O)[O-])cc3)c(OC)c2)ccc1-[n+]1nc(-c2ccccc2)nn1-c1ccc([N+](=O)[O-])cc1` [Nitrotetrazolium blue], the “Relative activity (electron acceptor)” value in the test on 1,5-AG dehydrogenase [3] (acceptor 1.0 mM) is 53%.

With `O=C(CO)[C@@H](O)[C@H](O)[C@H](O)CO` [D-fructose], the “Relative activity (substrate specificity)” value in the test with 1,5-AG dehydrogenase [1] came to 2.

Turning to `NC(=O)c1ccc[n+]([C@@H]2O[C@H](COP(=O)([O-])OP(=O)(O)OC[C@H]3O[C@@H](n4cnc5c(N)ncnc54)[C@H](OP(=O)(O)O)[C@@H]3O)[C@@H](O)[C@H]2O)c1` [NADP], in the test with 1,5-AG dehydrogenase [3] (acceptor 1.0 mM), the “Relative activity (electron acceptor)” value is recorded as 0%.

Consider `O=C1C(Cl)=CC(=Nc2ccc(O)cc2)C=C1Cl` [2,6-Dichlorophenolindophenol], for which, in the test on 1,5-AG dehydrogenase [3] (acceptor 0.1 mM), the “Relative activity (electron acceptor)” value turned out to be 100%.

On to `OC[C@H]1O[C@H](O[C@H]2[C@H](O)[C@@H](O)C(O)O[C@@H]2CO)[C@H](O)[C@@H](O)[C@@H]1O` (mixture of isomers) [Maltose], for which the “Relative activity (substrate specificity)” value in the test on 1,5-AG dehydrogenase [1] worked out at 0.

With `O=O` [Oxygen], in the test with 1,5-AG dehydrogenase [3] (dissolved oxygen), the “Relative activity (electron acceptor)” value was determined as 0%.

Regarding `O[C@H]1[C@H](O)[C@@H](O)[C@H](O)[C@@H](O)[C@H]1O` [Myoinocitol], in the test with 1,5-AG dehydrogenase [1], the “Relative activity (substrate specificity)” value is reported as 0.

With `OC[C@@H](O)[C@@H](O)[C@H](O)[C@@H](O)CO` [Glucitol], in the test with 1,5-AG dehydrogenase [1], the “Relative activity (substrate specificity)” value came out at 0.

For the molecule `O=C(CO)[C@@H](O)[C@H](O)[C@@H](O)CO` [L-sorbose], in the test with 1,5-AG dehydrogenase [1], the “Action of the enzyme” value is recorded as “weakly acted” and the “Relative activity (substrate specificity)” value came out at 25.

Broadly, the Km is the substrate concentration at which the rate is half of its maximum.
